The values below come from patent US20250027958A1, “DIAGNOSTIC AND THERAPEUTIC METHODS USING HEME AS A BIOMARKER FOR CELLULAR AND TISSUE DAMAGE” (Beth Israel Deaconess Medical Center, Inc., priority 2021, published 2025).

For the data set, the system named is male C57BL/6 mice. Particulars: DOX 20 mg/kg i.p., blood collected 1 hr later.

“Also recorded” adds a separate entry of the source.

Description: In brief, for the assessment of acute cytotoxicity, male C57BL/6 mice (10-12 weeks old) are administered HBI-002 (10 ml/kg, per os) or a control vehicle (10ml/kg, per os) at 0 hr and 1 hr, followed by administration of doxorubicin at 1.25 hr (20 mg/kg, intraperitoneal injection) and blood and tissue collection at 2.25 hr.
Male C57BL/6 mice (10-12 weeks old) were administered HBI-002 (10 ml/kg, per os) or a control vehicle (10 ml/kg, per os) at 0 hr and 1 hr, followed by administration of DOX at 1.25 hr (20 mg/kg, intraperitoneal injection) and blood and tissue collection at 2.25 hr (FIG. 1).

Turning to `COc1cccc2c1C(=O)c1c(O)c3c(c(O)c1C2=O)C[C@@](O)(C(=O)CO)C[C@@H]3O[C@H]1C[C@H](N)[C@H](O)[C@H](C)O1` [DOX, Doxorubicin], the “serum heme upon administration of DOX” value was “significant increases in heme levels; also recorded: significant increase in serum heme”.
